Test results from patent US7977342B2, “HCV inhibiting bi-cyclic pyrimidines” (Tibotec-Virco Virology BVBA, priority 2007, dated 2011).

The molecules below were run on HCV replicons (HCV RNA replication) in Huh-7 luc/neo cells (assay: Stable replicon cell reporter assay (Huh-Luc, luciferase)). Details: Hepatitis C virus, 72 h; Huh-Luc (Huh-7 luc/neo) cells, HCV type 1b NS3-NS5B replicon, luciferase readout, three days incubation.
Format: cell-based
Source text: The compounds of the present invention were examined for activity in the inhibition of HCV RNA replication in a cellular assay. […] The cellular assay was based on a bicistronic expression construct, as described by Lohmann et al. (1999) Science vol. 285 pp. 110-113 with modifications described by Krieger et al. (2001) Journal of Virology 75: 4614-4624, in a multi-target screening strategy. In essence, the method was as follows.
The assay utilized the stably transfected cell line Huh-7 luc/neo (hereafter referred to as Huh-Luc). This cell line harbored an RNA encoding a bicistronic expression construct comprising the wild type NS3-NS5B regions of HCV type 1b translated from an Internal Ribosome Entry Site (IRES) from encephalomyocarditis virus (EMCV), preceded by a reporter portion (FfL-luciferase), and a selectable marker portion (neo^R, neomycine phosphotransferase). The construct was bordered by 5′ and 3′ NTRs (non-translated regions) from HCV type 1b. Continued culture of the replicon cells in the presence of G418 (neo^R) was dependent on the replication of the HCV RNA. The stably transfected replicon cells that expressed HCV RNA, which replicated autonomously and to high levels, encoding inter alia luciferase, were used for screening the antiviral compounds.
The replicon cells were plated in 384 well plates in the presence of the test and control compounds which were added in various concentrations. Following an incubation of three days, HCV replication was measured by assaying luciferase activity (using standard luciferase assay substrates and reagents and a Perkin Elmer ViewLux™ ultraHTS microplate imager). Replicon cells in the control cultures had high luciferase expression in the absence of any inhibitor. The inhibitory activity of the compound on luciferase activity was monitored on the Huh-Luc cells, enabling a dose-response curve for each test compound. EC50 values were then calculated, which value represented the amount of the compound required to decrease by 50% the level of detected luciferase activity, or more specifically, the ability of the genetically linked HCV replicon RNA to replicate.
`CC1CCc2nc(-c3cc(Cl)ccc3F)nc(Nc3ccncc3C(N)=O)c21` (centres unmarked) [Compound 46] was tested, and the EC50 was 1600 nM.
Molecule `NNC(=O)c1cnccc1Nc1nc(-c2cc(Cl)ccc2F)nc2c1CCC2` [Compound 58] has an EC50 of 10300 nM.
For `CNC(=O)c1cnccc1Nc1nc(-c2cc(Cl)ccc2F)nc2c1C(C)CC2` (centres unmarked) [Compound 47, 4-[2-(5-Chloro-2-fluorophenyl)-5-methyl-6,7-dihydro-5H-cyclopentapyrimidin-4-ylamino]-N-methyl-nicotinamide], the EC50 was 27700 nM.
With `Cc1cnccc1Nc1nc(-c2cc(Cl)ccc2F)nn2cccc12` [Compound 80] the EC50 was 5800 nM.
`CC1(C)Cc2nc(-c3cc(Cl)ccc3F)nc(Nc3ccncc3C(N)=O)c2C1` [Compound 62, 4-[2-(5-Chloro-2-fluoro-phenyl)-6,6-dimethyl-6,7-dihydro-5H-cyclopentapyrimidin-4-ylamino]-nicotinamide] was tested, and the EC50 was 800 nM.
For `Cc1noc2nc(-c3cc(Cl)ccc3F)nc(Nc3ccncc3)c12` [Compound 8], the EC50 was 400 nM.
With `Cc1cnccc1Nc1nc(-c2cc(Cl)ccc2F)nc2c1CCC2` [Compound 20] the EC50 was 700 nM.
`CNC(=O)c1cnccc1Nc1nc(-c2cc(Cl)ccc2F)nc2c1CCCC2` [Compound 40] showed an EC50 of 7300 nM.
`CN(C)CCCNC(=O)c1cnccc1Nc1nc(-c2cc(Cl)ccc2F)nc2c1CCC2` [Compound 69] was tested, and the EC50 was 1800 nM.
In the case of `CNC(=O)c1cnccc1Nc1nc(-c2cc(Cl)ccc2F)nc2c1CCC2` [Compound 35], the EC50 is reported as 1500 nM.
Molecule `CCN(CC)CCNC(=O)c1cnccc1Nc1nc(-c2cc(Cl)ccc2F)nc2c1CCCC2` [Compound 59] has an EC50 of 2000 nM.
For `C[C@H](O)CNC(=O)c1cnccc1Nc1nc(-c2cc(Cl)ccc2F)nc2c1CCCC2` [Compound 57], the EC50 was 24000 nM.
With `NC(=O)c1cnccc1Nc1nc(-c2cc(Cl)ccc2F)nc2c1CCC2` [Compound 21] the EC50 was 400 nM.
`CC1CCc2nc(-c3cc(Cl)ccc3F)nc(Nc3ccncc3C(=O)O)c21` (centres unmarked) [Compound 49, 4-[2-(5-Chloro-2-fluorophenyl)-5-methyl-6,7-dihydro-5H-cyclopentapyrimidin-4-ylamino]-nicotinic acid] gave an EC50 of 13100 nM.
